Data on 29 compounds can be found in ChEMBL document CHEMBL1133138, “Substituted 2-aminopyridines as inhibitors of nitric oxide synthases” (Bioorg Med Chem Lett, 2000).

The target in assay [1] is Nitric oxide synthase, inducible (Homo sapiens, UniProt P35228).
Description: Inhibitory activity against inducible nitric oxide synthase (iNOS)
The target in another assay is T1, Nitric oxide synthase 3 (Homo sapiens, UniProt P29474).
T1 sequence (P29474 whole entry): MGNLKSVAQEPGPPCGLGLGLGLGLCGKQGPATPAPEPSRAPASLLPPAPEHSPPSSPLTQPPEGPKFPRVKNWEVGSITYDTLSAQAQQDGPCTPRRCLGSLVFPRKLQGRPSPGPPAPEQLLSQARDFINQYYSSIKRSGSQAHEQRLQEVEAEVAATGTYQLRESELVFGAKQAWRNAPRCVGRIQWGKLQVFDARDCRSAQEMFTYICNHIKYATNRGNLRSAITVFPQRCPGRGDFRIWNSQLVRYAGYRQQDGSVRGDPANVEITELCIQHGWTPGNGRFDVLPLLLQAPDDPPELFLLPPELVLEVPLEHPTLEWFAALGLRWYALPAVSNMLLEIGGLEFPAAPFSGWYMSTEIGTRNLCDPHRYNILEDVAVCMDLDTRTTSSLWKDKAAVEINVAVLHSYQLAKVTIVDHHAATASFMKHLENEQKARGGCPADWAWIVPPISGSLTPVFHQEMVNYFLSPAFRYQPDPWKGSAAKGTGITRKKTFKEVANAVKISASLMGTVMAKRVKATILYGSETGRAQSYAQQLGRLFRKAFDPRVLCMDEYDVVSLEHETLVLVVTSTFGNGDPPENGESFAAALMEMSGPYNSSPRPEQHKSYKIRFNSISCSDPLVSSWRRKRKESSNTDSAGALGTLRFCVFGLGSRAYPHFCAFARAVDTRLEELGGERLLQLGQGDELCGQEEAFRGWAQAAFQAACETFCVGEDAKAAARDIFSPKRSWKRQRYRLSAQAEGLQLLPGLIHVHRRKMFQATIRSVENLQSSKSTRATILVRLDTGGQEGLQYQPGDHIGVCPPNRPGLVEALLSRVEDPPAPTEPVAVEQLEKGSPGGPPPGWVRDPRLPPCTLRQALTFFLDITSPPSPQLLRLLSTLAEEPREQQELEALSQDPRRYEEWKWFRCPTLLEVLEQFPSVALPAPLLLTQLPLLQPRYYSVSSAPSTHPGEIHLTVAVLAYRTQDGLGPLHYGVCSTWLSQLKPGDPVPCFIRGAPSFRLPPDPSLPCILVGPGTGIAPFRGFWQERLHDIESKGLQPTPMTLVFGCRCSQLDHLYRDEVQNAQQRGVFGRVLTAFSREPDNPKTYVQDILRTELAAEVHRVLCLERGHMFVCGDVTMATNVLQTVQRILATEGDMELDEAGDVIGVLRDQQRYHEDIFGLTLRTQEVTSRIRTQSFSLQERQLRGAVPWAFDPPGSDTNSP

For assay [2], the target named is T2, Nitric oxide synthase 1 (Homo sapiens, UniProt P29475).
T2 sequence (P29475 whole entry): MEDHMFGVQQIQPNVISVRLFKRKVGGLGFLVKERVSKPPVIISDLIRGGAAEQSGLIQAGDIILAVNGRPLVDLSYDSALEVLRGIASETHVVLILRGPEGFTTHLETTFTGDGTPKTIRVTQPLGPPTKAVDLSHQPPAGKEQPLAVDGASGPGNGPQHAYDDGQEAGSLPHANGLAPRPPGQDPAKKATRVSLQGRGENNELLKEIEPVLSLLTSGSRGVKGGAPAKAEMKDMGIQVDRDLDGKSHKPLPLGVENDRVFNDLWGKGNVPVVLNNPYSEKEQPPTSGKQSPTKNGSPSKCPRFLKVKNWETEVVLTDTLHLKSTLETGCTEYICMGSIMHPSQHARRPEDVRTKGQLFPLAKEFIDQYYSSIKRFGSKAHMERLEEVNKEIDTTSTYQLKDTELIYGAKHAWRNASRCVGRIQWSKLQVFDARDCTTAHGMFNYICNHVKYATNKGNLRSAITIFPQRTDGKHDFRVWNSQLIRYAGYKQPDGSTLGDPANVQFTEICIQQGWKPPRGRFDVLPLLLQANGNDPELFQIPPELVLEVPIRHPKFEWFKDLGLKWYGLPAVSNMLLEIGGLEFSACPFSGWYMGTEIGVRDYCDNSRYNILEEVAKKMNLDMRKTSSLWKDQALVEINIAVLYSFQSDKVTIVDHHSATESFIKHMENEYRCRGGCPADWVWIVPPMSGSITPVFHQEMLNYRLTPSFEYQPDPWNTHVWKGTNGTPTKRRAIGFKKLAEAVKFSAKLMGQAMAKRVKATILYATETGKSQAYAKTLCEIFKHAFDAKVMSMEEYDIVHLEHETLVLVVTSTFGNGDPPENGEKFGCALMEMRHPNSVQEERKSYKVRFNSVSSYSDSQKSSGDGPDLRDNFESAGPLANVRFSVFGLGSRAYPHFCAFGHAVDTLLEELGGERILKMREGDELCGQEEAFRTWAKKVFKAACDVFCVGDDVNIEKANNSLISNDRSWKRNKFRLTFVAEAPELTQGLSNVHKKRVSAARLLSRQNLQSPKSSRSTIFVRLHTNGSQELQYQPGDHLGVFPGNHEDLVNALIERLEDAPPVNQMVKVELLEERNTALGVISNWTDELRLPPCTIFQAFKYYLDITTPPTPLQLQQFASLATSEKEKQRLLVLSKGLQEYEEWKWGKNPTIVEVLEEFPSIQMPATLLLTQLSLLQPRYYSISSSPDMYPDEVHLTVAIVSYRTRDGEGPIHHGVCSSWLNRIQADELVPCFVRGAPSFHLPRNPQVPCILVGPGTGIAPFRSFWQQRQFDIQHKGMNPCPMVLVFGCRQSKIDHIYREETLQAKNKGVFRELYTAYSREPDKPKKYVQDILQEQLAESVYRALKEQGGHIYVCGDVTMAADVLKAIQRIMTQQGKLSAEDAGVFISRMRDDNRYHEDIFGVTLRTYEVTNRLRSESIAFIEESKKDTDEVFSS
Description: Inhibitory activity against neuronal nitric oxide synthase
For assay [3], the target named is T2, Nitric oxide synthase 1. Briefly: Inhibitory activity against Neuronal nitric oxide synthase. The conditions noted are these: concentration not given here.
In assay [4] the target is T3, Nitric oxide synthase 3 (Homo sapiens) (UniProt P29474).
T3 sequence (whole entry): T1 sequence (P29474 whole entry)
Briefly: Inhibitory activity against Endothelial nitric oxide synthase. The conditions noted are these: concentration not given here.

Assay [5] relates to Rattus norvegicus. Briefly: Dose required to increase mean aterial blood pressure (MAP) by 40 mm versus control after intravenous administration in rat. Format: functional.
The next assay deals with Mus musculus. In words: Compound was evaluated for LPS induced nitric oxide increase in mouse plasma after peroral administration of the compound. Format: functional. The conditions noted are these: po.
The test system of assay [6] is Rattus norvegicus. In words: Dose required to increase mean aterial blood pressure (MAP) by 40 mm versus control after intravenous administration in rats. It counts as functional.

Molecules are shown by their SMILES.

Sequence of Nitric oxide synthase, inducible (P35228 whole entry): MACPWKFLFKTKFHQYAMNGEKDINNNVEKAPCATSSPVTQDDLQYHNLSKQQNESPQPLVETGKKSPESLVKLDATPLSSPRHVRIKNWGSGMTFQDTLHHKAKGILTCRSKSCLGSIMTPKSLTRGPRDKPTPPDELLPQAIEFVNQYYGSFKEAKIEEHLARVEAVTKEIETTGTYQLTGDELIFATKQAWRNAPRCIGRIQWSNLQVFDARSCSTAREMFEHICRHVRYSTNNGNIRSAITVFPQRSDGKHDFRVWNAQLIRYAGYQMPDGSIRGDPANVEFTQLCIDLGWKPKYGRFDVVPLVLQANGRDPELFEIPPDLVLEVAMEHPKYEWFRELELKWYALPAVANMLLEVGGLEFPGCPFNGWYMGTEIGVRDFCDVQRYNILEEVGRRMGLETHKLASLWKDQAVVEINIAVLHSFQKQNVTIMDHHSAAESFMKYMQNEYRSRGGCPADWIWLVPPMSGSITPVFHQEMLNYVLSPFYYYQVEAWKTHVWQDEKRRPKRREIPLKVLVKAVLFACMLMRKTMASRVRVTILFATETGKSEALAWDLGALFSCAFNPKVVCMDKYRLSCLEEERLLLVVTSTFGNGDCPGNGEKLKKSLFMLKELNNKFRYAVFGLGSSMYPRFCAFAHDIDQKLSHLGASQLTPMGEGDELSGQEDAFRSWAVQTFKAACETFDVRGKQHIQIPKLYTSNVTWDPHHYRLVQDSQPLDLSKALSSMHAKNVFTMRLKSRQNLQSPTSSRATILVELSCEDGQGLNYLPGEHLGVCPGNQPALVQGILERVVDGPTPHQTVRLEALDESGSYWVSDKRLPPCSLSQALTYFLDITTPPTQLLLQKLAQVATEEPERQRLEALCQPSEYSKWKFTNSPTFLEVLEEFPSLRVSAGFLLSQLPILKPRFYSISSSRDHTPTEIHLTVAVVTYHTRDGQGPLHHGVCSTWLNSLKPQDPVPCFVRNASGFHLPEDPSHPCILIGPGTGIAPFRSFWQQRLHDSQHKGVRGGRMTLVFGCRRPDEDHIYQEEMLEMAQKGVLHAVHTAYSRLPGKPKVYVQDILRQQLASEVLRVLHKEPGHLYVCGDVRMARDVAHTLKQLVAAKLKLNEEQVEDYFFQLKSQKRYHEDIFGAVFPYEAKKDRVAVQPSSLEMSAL

Usually IC50 stands for the concentration that inhibits the measured activity by half. A lower IC50 goes with greater potency. Take `Nc1cc2c(cn1)CCCC2`: the IC50 worked out at 4100 nM in assay [1], 16600 nM against Nitric oxide synthase 3 and 10600 nM on Nitric oxide synthase 1 [2].

In the case of `Cc1cccnc1N`, the results for the IC50 (in assay [1]; at Nitric oxide synthase 1 [2]) were 940 nM and 1300 nM, respectively.

On to `Cc1cc(N)nc(CC(C)C)c1`, for which the figures for the IC50 (in assay [1]; against Nitric oxide synthase 3; at Nitric oxide synthase 1 [2]) were 28 nM, 150 nM and 100 nM, respectively.

For the compound `Nc1nccc2c1CCCC2`, the figures for the IC50 (in assay [1]; against Nitric oxide synthase 3; at Nitric oxide synthase 1 [2]) were 29000 nM, 24000 nM and 11000 nM, respectively.

On to `Cc1ccnc(N)c1N`, for which, in assay [1], 59 nM corresponded to half-maximal inhibition (IC50).

As for `CCCc1c(C)ccnc1N`, the IC50 in assay [1] was 34500 nM.

`CCCc1ccnc(N)c1`: the IC50 in assay [1] is greater than 50000 nM.

`Cc1cc(N)nc(C(C)C)c1`: the IC50 in assay [1] was found to be 110 nM; against Nitric oxide synthase 3, 200 nM; against Nitric oxide synthase 1 [2], 1200 nM.

On Nitric oxide synthase 3, `Cc1ccnc(N)c1C` registered an IC50 of 150 nM.

Consider `Cc1cnc(N)cc1C`, for which the IC50 was 810 nM in assay [1], 600 nM at Nitric oxide synthase 3 and 340 nM on Nitric oxide synthase 1 [2].

For the compound `Cc1cc(N)nc(CCC(C)C)c1`, the IC50 in assay [1] was determined as 76 nM; at Nitric oxide synthase 3, 1900 nM; against Nitric oxide synthase 1 [2] it was 510 nM.

A word on the inhibition: it is the drop in the measured response relative to a control, in per cent. A higher inhibition goes with strong suppression. With `CCc1cc(C)cc(N)n1`, on Nitric oxide synthase 1 [3], the inhibition stood at 42%. Moreover, the results for the IC50 (in assay [1]; against Nitric oxide synthase 3) were 330 nM and 49 nM, respectively.

Consider `Cc1ccc(N)nc1`, for which it took 600 nM to reach half-maximal inhibition in assay [1] (IC50).

As for `Cc1cc(N)nc2c1CCCC2`, the IC50 worked out at 4000 nM in assay [1], 19800 nM at Nitric oxide synthase 3 and 2400 nM at Nitric oxide synthase 1 [2].

For `Cc1cc(N)nc(CCCc2ccccc2)c1`, the IC50 in assay [1] is 12700 nM; against Nitric oxide synthase 3 it was 17200 nM; at Nitric oxide synthase 1 [2], 3300 nM.

As for `Nc1ccc2c(n1)CCC2`, the IC50 (in assay [1]; against Nitric oxide synthase 3; at Nitric oxide synthase 1 [2]) was greater than 50000 nM in each case.

As to `Cc1ccc(N)nc1C`, the IC50 stood at 7200 nM in assay [1], 2800 nM against Nitric oxide synthase 3 and 2200 nM on Nitric oxide synthase 1 [2].

Take `CC(=N)NCCCC[C@H](N)C(=O)O` [L-NIL]: the values for the IC50 (in assay [1]; against Nitric oxide synthase 3; on Nitric oxide synthase 1 [2]) were 1400 nM, 7900 nM and 18400 nM, respectively.

In the case of `CCCCc1cc(C)cc(N)n1`, the figures for the inhibition (in assay [4]; against Nitric oxide synthase 1 [3]) were 40% and 59%, respectively. Besides, in assay [1], the IC50 was determined as 46 nM.

Consider `Cc1cc(C)nc(N)c1`, for which the IC50 in assay [1] turned out to be 110 nM; at Nitric oxide synthase 3 it was 45 nM.

In the case of `Nc1ccccn1` [2-AMINOPYRIDINE], the results for the IC50 (in assay [1]; on Nitric oxide synthase 3) were 1900 nM and 2800 nM, respectively.

As to `Nc1cc(Cl)ccn1`, the IC50 in assay [1] was greater than 50000 nM.

Consider `CCc1c(C)ccnc1N`, for which the IC50 in assay [1] was determined as 2700 nM; against Nitric oxide synthase 3 it was 3300 nM.

What is called ED50 is the midpoint of the dose-response relation. Read a low ED50 as an effect at a small dose. In the case of `CC1CCN=C(N)C1` (stereo not drawn), the IC50 in assay [1] was 16 nM. The same compound came in with an HD50 in the assay on Rattus norvegicus [5] of 1.8 mg/kg. The compound further returned an ED50 in the assay with Mus musculus of 0.15 mg/kg.

Consider `Cc1cnc(N)c(C)c1`, for which the IC50 stood at 14600 nM in assay [1], 3600 nM against Nitric oxide synthase 3 and 2000 nM against Nitric oxide synthase 1 [2].

`Nc1cc2ccccc2cn1` [ISOQUINOLIN-3-AMINE] returned an IC50 in assay [1] greater than 50000 nM.

On to `N=C(N)NN` [PIMAGEDINE], for which the concentration for half-maximal inhibition (IC50) in assay [1] was 101000 nM; against Nitric oxide synthase 3, 500000 nM; against Nitric oxide synthase 1 [2], 118000 nM.

As for `CCc1cnc(N)cc1C`, the half-inhibitory concentration (IC50) in assay [1] was 1300 nM; at Nitric oxide synthase 3, 3400 nM; against Nitric oxide synthase 1 [2], 610 nM.

Take `Cc1ccnc(N)c1`: the HD40 with Rattus norvegicus [6] was found to be 0.11 mg/kg. This compound showed an ED50 in the assay on Mus musculus of 25 mg/kg.
